# Measured values taken from patent publication US9790218B2, “Small molecule activators of calcium-activated chloride channels and methods of use” (The Regents of the University of California, priority 2011, dated 2017).
# Biological target: T1, TMEM16A (Homo sapiens, UniProt Q5XXA6, DEL476-501)
# T1 construct: expressed in transfected cells
# T1 sequence (Q5XXA6 with tags, fused parts or gaps isoform Q5XXA6-5 DEL539-564): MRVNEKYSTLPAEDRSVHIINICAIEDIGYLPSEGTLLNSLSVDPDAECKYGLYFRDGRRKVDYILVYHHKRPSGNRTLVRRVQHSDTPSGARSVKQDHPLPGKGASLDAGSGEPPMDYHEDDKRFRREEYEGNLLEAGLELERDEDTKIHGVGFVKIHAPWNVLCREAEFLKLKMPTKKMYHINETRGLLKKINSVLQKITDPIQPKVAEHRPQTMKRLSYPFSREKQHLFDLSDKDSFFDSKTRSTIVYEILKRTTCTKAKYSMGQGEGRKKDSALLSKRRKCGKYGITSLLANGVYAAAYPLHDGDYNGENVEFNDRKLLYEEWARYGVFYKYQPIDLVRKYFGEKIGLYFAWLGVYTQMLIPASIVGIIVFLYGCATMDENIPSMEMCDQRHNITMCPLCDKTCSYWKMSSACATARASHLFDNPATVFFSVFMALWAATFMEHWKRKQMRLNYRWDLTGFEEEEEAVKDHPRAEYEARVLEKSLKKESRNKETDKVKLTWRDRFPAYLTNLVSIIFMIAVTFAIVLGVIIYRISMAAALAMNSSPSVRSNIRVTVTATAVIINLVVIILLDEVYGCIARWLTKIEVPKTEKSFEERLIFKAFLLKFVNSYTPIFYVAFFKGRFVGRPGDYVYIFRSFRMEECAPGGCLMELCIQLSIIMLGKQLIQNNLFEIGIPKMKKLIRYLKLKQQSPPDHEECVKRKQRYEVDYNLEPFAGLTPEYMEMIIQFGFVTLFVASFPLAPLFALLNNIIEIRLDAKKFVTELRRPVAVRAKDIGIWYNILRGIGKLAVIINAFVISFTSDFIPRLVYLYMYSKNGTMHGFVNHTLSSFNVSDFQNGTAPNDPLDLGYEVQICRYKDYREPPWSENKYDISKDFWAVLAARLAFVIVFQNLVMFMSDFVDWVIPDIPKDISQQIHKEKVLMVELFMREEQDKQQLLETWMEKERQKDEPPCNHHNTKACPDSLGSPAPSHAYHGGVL
# Experiment: Whole-cell patch-clamp of TMEM16A-expressing FRT cells
# Format: cell-based
# Procedure: FIG. 4A-D. Patch-clamp analysis of Ca^2+ requirements for TMEM16A activation by Eact and Fact. FIG. 4A. Apical membrane current measured in TMEM16A-expressing FRT cells. ER calcium stores were depleted by CPA (50 μM, 30 min) and 0 CaCl2 in bath. ATP (100 μM), Fact (10 μM), Eact (10 μM) and T16Ainh-A01 (10 μM) were added as indicated. FIG. 4B and FIG. 4C. Whole-cell TMEM16A currents were recorded at a holding potential at 0 mV, and pulsing to voltages between ±80 mV (in steps of 20 mV) in the absence and presence of 3 μM Eact or 10 μM Fact. Free calcium concentration of pipette solutions were clamped at 0 μM, 0.07 μM, 0.15 μM, and 1 μM. Eact (3 μM) or Fact (10 μM) added as indicated. (right) Current/voltage (I/V) plots of mean currents at the middle of each voltage pulse. The Ca^2+ concentration is indicated to the right. FIG. 4D. TMEM16A inhibited by 10 μM T16Ainh-A01 after stimulation by Eact or Fact.
# Whole-cell recordings were made at room temperature on TMEM16A-expressing FRT cells and human submandibular A253 cells. The bath solution contained (in mM): 140 NMDG-Cl, 1 CaCl2, 1 MgCl2, 10 glucose and 10 HEPES (pH 7.4). The pipette solution contained (in mM): 130 CsCl, 0.5 EGTA, 1 MgCl2, 1 Tris-ATP, and 10 HEPES (pH 7.2). Different concentrations of free calcium in pipette solution were obtained by replacing 0.5 mM EGTA with 5 mM EGTA, and using different amounts of CaCl2 in the pipette solution. Pipettes were pulled from borosilicate glass and had resistances of 3-5 MΩ after fire polishing. Seal resistances were between 3 and 10 GΩ. After establishing the whole-cell configuration, TMEM16A was activated by 100 μM ATP, TMEM16A activators or different concentrations of free calcium in the pipette solution. Whole-cell currents were elicited by applying hyperpolarizing and depolarizing voltage pulses from a holding potential of 0 mV to potentials between −100 mV and +100 mV in steps of 20 mV. Recordings were made at room temperature using an Axopatch-200B (Axon Instruments). Currents were digitized with a Digidata 1440A converter (Axon Instruments), filtered at […].
# The Ca^2+ dependence of TMEM16A activation by Eact and Fact was investigated. […] Whole-cell currents were then recorded by patch-clamp at different cytoplasmic (pipette) [Ca^2+]. […] (FIG. 4B, bottom and right). […] Thus, Eact and Fact activate TMEM16A by different mechanisms: Eact as a largely Ca^2+-independent ‘activator’, and Fact as a ‘potentiator’ of Ca^2+ activation.
Compound,maximum TMEM16A Cl^− current at high [Ca^2+] (3 μM Eact or 10 μM Fact),"whole-cell Cl^− current at submaximal Ca^2+ (compared to no compound, 10 μM Fact)","whole-cell TMEM16A Cl^− current at 0 Ca^2+ (pipette 0 Ca^2+, 3 μM Eact or 10 μM Fact)",block of Cl^− currents produced by Eact or Fact (10 μM T16Ainh-A01)
"O=C(Nc1ccc(Br)cc1)c1cccc(-n2cnnn2)c1 [Fact, N-(4-bromophenyl)-3-(1H-tetrazol-1-yl)benzamide]",not further increased,increased Cl^− current,did not product Cl^− current,–
"CCc1c(C)nc(SCC(=O)Nc2nc(-c3ccc(OC)cc3)cs2)[nH]c1=O [T16Ainh-A01, reference compound]",–,–,–,completely blocked
